# Reference: patent US20200404909A1, “Fatty acid derivatives for use as herbicides” (Clariant International Ltd., priority 2018, published 2020)
# Legend:
# [1] = system: monocotyledonous and dicotyledonous harmful plants (ABUTH, ALOMY, AMARE, DIGSA, ERICA, LOLPE, SOLNI, VIOAR); test: Greenhouse trials, post emergence herbicidal activity (percent control); format: in vivo; settings: 5-20% w/v of applied substances, spray volume 500-1000 liters per hectare, broadcast foliar method
# Source text: Standard post emergence herbicide application procedures were used, as described below, to apply inventive compounds and formulations listed in the tables 1 and 2, as well as the reference materials.
# Seed of monocotyledonous and dicotyledonous harmful plants such as Abutilon theophrasti (ABUTH), Alopecurus myosuroides (ALOMY), Amaranthus retroflexus (AMARE), Digitaria Sanguinalis (DIGSA), Erigeron canadensis (ERICA), Lolium perenne (LOLPE), Solanun nigrum (SOLNI), Viola arvensis (VIOAR) were sowed in 18 cm^2 pots. The plants were placed in a greenhouse under controlled environmental conditions, and sub-irrigation. About one week after emergence, seedlings were thinned as needed, including removal of any unhealthy or abnormal plants, to create a uniform series of test pots.
# The plants were maintained for the duration of the test in the greenhouse, where they received a mean of 70 μmol m^−2 s^−1 of light per day/night. Temperatures averages about 24° C. during the day and about 20° C. during the night. Plants were sub-irrigated throughout the test to ensure adequate soil moisture levels.
# Pots were assigned to different treatment in a randomized experimental design. A set of pots was left untreated as a reference against which effects of the treatments could later be evaluated. Applications of tested formulations were made in a spray cabin model SPK B CT02 designed by CheckTec using the following parameters: • nozzle Lechler LU-120-08, 1000 L/ha, 3 bars, 0.56 m/s • nozzle Lechler LU-120-06, 500 L/ha, 3 bars, 0.7 m/s.
# The distance of the nozzle from the plants was between 50 to 53 cms.
# After treatment, pots were returned to the greenhouse until ready for evaluation (6 hours after treatment (6HAT), 1 day after treatment (1DAT), and 2 days after treatment (2DAT).
# For evaluation of herbicidal effectiveness, all plants in the test were examined by a single technician, who recorded percent control, a visual measurement of the effectiveness of each treatment by comparison with untreated plants. […] The reported % control values represent the average for all replicates of each treatment.
# [2] = Volatility from spray deposit on non-permeable leaf cuticles; format: physicochemical; settings: test substances 50 g/L, pelargonic acid 30 g/L, Vorox 130 g/L; for Volatilized fraction 4 h: pH 4, 4 h; for Volatilized fraction 24 h: pH 4, 24 h; for Volatilized fraction 48 h: pH 4, 48 h
# Protocol: (§1) The volatility of the test substances from the spray deposit was measured time dependent. All measurements have been carried out using a concentration of 50 g/L of the test substances in the application solution. The reference pelargonic acid was used at a concentration of 30 g/L and the commercial benchmark Vorox was applied at a concentration of 130 g/L. The […] drop volumes of 10 μl of the spray liquids which amounts to 500 μg of test substance were then applied on two different substrates. An inert wettable synthetic substrates and non-permeable leaf cuticles were used as substrates. […] After evaporation of drop water, the substrates were weighed to obtain the initial weight and placed under a sealed box with defined air suction output volume of 30 m^3/h. The volatility has been determined after the desired measurement time of 4 h, 24 h and 48 h by weighing of the substrates to obtain the remaining weight of the test substances. The fraction of remaining test substance in % is obtained by the ratio of remaining test substance compared to the initial weight of test substance. The volatilized amount was calculated by subtraction of the remaining test substance of the initial applied amount. The volatilized fraction of test substance in % is obtained by the ratio of volatilized test substance compared to the initial weight of test substance. A substrate without test substance is used as reference to account for changes in environmental conditions such as humidity. Concentrations used are based on ca. 3% pelargonic acid equivalent
# [3] = Volatility from spray deposit on inert wettable synthetic substrates; format: physicochemical; settings: test substances 50 g/L, pelargonic acid 30 g/L, Vorox 130 g/L; for Volatilized fraction 4 h: pH 4, 4 h; for Volatilized fraction 24 h: pH 4, 24 h; for Volatilized fraction 48 h: pH 4, 48 h
# Protocol: as §1
molecule,measurement,setting,value
"CCCCCCCCC(=O)OCCOCCOCCOCCOC(C)COCCOCCOC (centres unmarked) [A3, Pelargonic acid 1 PO 6 EO ester methyl ether]",herbicidal activity against a plurality of the harmful plants,[1],moderately effective to highly effective
"CCCCCCCCC(=O)OC(C)COCCOCCOC (centres unmarked) [A4, Pelargonic acid 1 PO 2 EO ester methyl ether]",herbicidal activity against a plurality of the harmful plants,[1],moderately effective to highly effective
same,"herbicidal activity against several, in particular three or more, of the mentioned harmful plants",[1],highly effective
"CCCCCCCCCCOCCOCCOCCOCCOCCOC(=O)CCCCCCCC [A9, Pelargonic acid 5 EO ester decyl ether]",Volatilized fraction 4 h,[2],8.6%
same,Volatilized fraction 24 h,[2],11.7%
same,Volatilized fraction 48 h,[2],22.8%
same,Volatilized fraction 4 h,[3],0.3%
same,Volatilized fraction 24 h,[3],1.2%
same,Volatilized fraction 48 h,[3],1.9%
same,herbicidal activity against a plurality of the harmful plants,[1],moderately effective to highly effective
"CCCCCCCCC(=O)OCCOCCOCCOCCCCCC [A10, Pelargonic acid 3 EO ester hexyl ether]",Volatilized fraction 4 h,[2],6.2%
same,Volatilized fraction 24 h,[2],14.7%
same,Volatilized fraction 48 h,[2],18.9%
same,Volatilized fraction 4 h,[3],0.9%
same,Volatilized fraction 24 h,[3],4.4%
same,Volatilized fraction 48 h,[3],7.2%
same,herbicidal activity against a plurality of the harmful plants,[1],moderately effective to highly effective
"C=CCCCCCCCC(=O)OCCOCCOCCOCCOCCOCCOC [A11, Dec-9-enoic acid 6 EO ester methyl ether]",herbicidal activity against a plurality of the harmful plants,[1],moderately effective to highly effective
"CC(CC(=O)O)CC(C)(C)C (centres unmarked) [A13, 3,5,5-trimethylhexanoic acid]",herbicidal activity against a plurality of the harmful plants,[1],moderately effective to highly effective
"CCCCCCCCCCC(=O)OCCOCCOCCOCCOCCOCCOC [A15, Undecanoic acid 6 EO ester methyl ether]",herbicidal activity against a plurality of the harmful plants,[1],moderately effective to highly effective
"CCCCCCCCC(=O)OCCOCCOCCOCCOCCOCCOCC [A16, Pelargonic acid 6 EO ester ethyl ether]",herbicidal activity against a plurality of the harmful plants,[1],moderately effective to highly effective
"CCCCCCCCC(=O)OCCOCCOCCOCCOCCOCCOC(=O)CCCCCCCC [A17, Pelargonic acid 6 EO diester, reference compound]",Volatilized fraction 4 h,[2],0.6%
same,Volatilized fraction 24 h,[2],1.5%
same,Volatilized fraction 48 h,[2],0.6%
same,Volatilized fraction 4 h,[3],0.6%
same,Volatilized fraction 24 h,[3],1.0%
same,Volatilized fraction 48 h,[3],1.3%
"CCCCCCCCC(=O)OCCOCCOCCOCCOCCOCCOCCOCCOC(=O)CCCCCCCC [A18, Pelargonic acid 8 EO diester, reference compound]",Volatilized fraction 4 h,[2],0.6%
same,Volatilized fraction 24 h,[2],1.7%
same,Volatilized fraction 48 h,[2],4.0%
same,Volatilized fraction 4 h,[3],0.5%
same,Volatilized fraction 24 h,[3],0.7%
same,Volatilized fraction 48 h,[3],0.9%
C8/C10 fatty acid 4 EO ester methyl ether [A5],herbicidal activity against a plurality of the harmful plants,[1],moderately effective to highly effective
C12/C14 fatty acid 3 EO ester methyl ether [A7],herbicidal activity against a plurality of the harmful plants,[1],moderately effective to highly effective
C12/C14 fatty acid 5 EO ester methyl ether [A8],herbicidal activity against a plurality of the harmful plants,[1],moderately effective to highly effective
Dodec-9-enoic acid 3 EO ester methyl ether [A12],herbicidal activity against a plurality of the harmful plants,[1],moderately effective to highly effective
Dodecanoic acid 6 EO ester methyl ether [A14],herbicidal activity against a plurality of the harmful plants,[1],moderately effective to highly effective
